Measurements taken from ChEMBL document CHEMBL1136278, “Synthesis and anticancer effect of B-ring trifluoromethylated flavonoids” (Bioorg Med Chem Lett, 2003).
pIC50: −log10 of the molar value.

Each molecule was assayed on SGC-7901 (assay: In vitro anti-cancer activity against SGC-7901 cell). Conditions: Homo sapiens.
Format: functional, cell-based

`COc1ccc2c(c1)O/C(=C\c1ccc(C(F)(F)F)cc1)C2=O` and `CCOc1ccc2c(c1)O/C(=C\c1ccc(C(F)(F)F)cc1)C2=O` are within 0.2 log units of each other in pIC50: 4.67 for the first, 4.81 for the second.

Going from `CCCCCCCOc1cc(OCCCCCCC)c2c(=O)cc(-c3ccc(C(F)(F)F)cc3)oc2c1` to `CCCCCCCCOc1cc(OCCCCCCCC)c2c(=O)cc(-c3ccc(C(F)(F)F)cc3)oc2c1`, the pIC50 rises from 4.51 to 4.74 (0.23 log units). The second is the more potent here.

Going from `C=CCOc1ccc2c(=O)cc(-c3ccc(C(F)(F)F)cc3)oc2c1` to `CCOc1ccc2c(=O)cc(-c3ccc(C(F)(F)F)cc3)oc2c1`, the pIC50 falls from 5.28 to 4.54 (0.74 log units). The first is the more potent here.

Compared with `O=c1cc(-c2ccc(C(F)(F)F)cc2)oc2cc(O)ccc12`, `COc1ccc2c(=O)cc(-c3ccc(C(F)(F)F)cc3)oc2c1` is 0.33 log units higher in pIC50: 4.75 for the first, 5.08 for the second. The second is the more potent here.

`CCCOc1ccc2c(=O)cc(-c3ccc(C(F)(F)F)cc3)oc2c1` and `CCCCCCCCOc1ccc2c(=O)cc(-c3ccc(C(F)(F)F)cc3)oc2c1` are within 0.2 log units of each other in pIC50: 5.25 for the first, 5.38 for the second.

First: O=c1cc(-c2ccc(C(F)(F)F)cc2)oc2cc(OCc3ccccc3)cc(OCc3ccccc3)c12
Second: CCOc1cc(OCC)c2c(=O)cc(-c3ccc(C(F)(F)F)cc3)oc2c1
The pIC50 of the first is 0.94 log units higher: 5.30 for the first, 4.36 for the second.

`COc1cc(O)c2c(=O)cc(-c3ccccc3)oc2c1C(F)(F)F` and `CC(=O)Oc1c(C(F)(F)F)c(O)c2c(=O)cc(-c3ccccc3)oc2c1C(F)(F)F` are within 0.2 log units of each other in pIC50: 5.23 for the first, 5.07 for the second.

`O=C1/C(=C/c2ccc(C(F)(F)F)cc2)Oc2cc(O)ccc21` and `C=CCOc1ccc2c(c1)O/C(=C\c1ccc(C(F)(F)F)cc1)C2=O` are within 0.2 log units of each other in pIC50: 5.37 for the first, 5.52 for the second.

First: CCOc1cc(OCC)c2c(=O)c(CC)c(-c3ccc(C(F)(F)F)cc3)oc2c1
Second: CCCOc1cc(OCCC)c2c(=O)c(CCC)c(-c3ccc(C(F)(F)F)cc3)oc2c1
The pIC50 of the first is 0.92 log units lower: 4.14 for the first, 5.06 for the second.

Compared with `CCCOc1cc(OCCC)c2c(=O)cc(-c3ccc(C(F)(F)F)cc3)oc2c1`, `COc1cc(OC)c2c(=O)cc(-c3ccc(C(F)(F)F)cc3)oc2c1` is 0.21 log units lower in pIC50: 5.57 for the first, 5.36 for the second. The first is the more potent here.

First: CCCCCCCCCCOc1cc(OCCCCCCCCCC)c2c(=O)cc(-c3ccc(C(F)(F)F)cc3)oc2c1
Second: CCCCCCCOc1ccc2c(c1)O/C(=C\c1ccc(C(F)(F)F)cc1)C2=O
The pIC50 of the first is 0.23 log units lower: 5.04 for the first, 5.27 for the second.

`O=c1cc(-c2ccc(C(F)(F)F)cc2)oc2cc(O)cc(O)c12` and `COc1cc(OC)c2c(=O)c(C)c(-c3ccc(C(F)(F)F)cc3)oc2c1` are within 0.2 log units of each other in pIC50: 5.18 for the first, 5.00 for the second.

`O=C1/C(=C/c2ccc(C(F)(F)F)cc2)Oc2cc(OCc3ccccc3)ccc21` was tested, and the pIC50 was 4.83.
